Results: patent publication US20260234180A1, “AMINO ACID DERIVATIVE, PREPARATION METHOD THEREFOR, AND PHARMACEUTICAL COMPOSITION FOR TREATING HEPATITIS, COMPRISING SAME” (priority 2021, published 2026)

Key:
HBV virus [1] = experiment: HBV infection of HepG2-NTCP cells, HBeAg ELISA analysis; assay type: cell-based, hepatitis B virus (HBV); details: 20 μM, O.D. 450 nm
Protocol: (§1) Specifically, the HepG2-NTCP cell line was cultured on a 6-well plate, incubation was performed overnight, HBV inhibitors were treated at a concentration of 20 μM, and the positive control Myrcludex-B (MyrB) was treated at a concentration of 200 nM, followed by culture for 24 hours. After HBV infection into the cells to make HBV 3000 genome equivalent per ml/cell (Geq/cell), the cell culture medium was replaced (medium changing, MC) a day after the viral infection to remove the virus unattached to cell membranes. In order to measure an amount of virus that entered the cell, medium changing (MC) was performed once more 4 days after viral infection. 2 days after replacement, HBeAg ELISA analysis was performed using a supernatant, and Southern blot analysis was performed with cell pellets.
HBeAg ELISA analysis was performed using an HBeAg ELISA kit (sanbio, Wantai HBeAg ELISA, cat #WB-2496) for the supernatant obtained by the method in Experimental Example 4-1.
First, a negative control group (Mock), positive control group (MyrB), and samples according to the present disclosure were loaded, by 50 μl each to be triplicate, onto a 96-well plate coated with capture Ab. In this case, Example 1 (LCA-ILE), Example 44 (LCA-Val), Example 52 (LCA-Tyr), Example 51 (LCA-Ser), Example 55 (LCA-Glu), Example 2 (UDCA-Ile), Example 3 (UDCA-Val), Example 25 (LCA-Val-Trp), Example 10 (DCA-Ile), Comparative Example 1 (LCA), and Comparative Example 2 (UDCA) were used as the sample.
The HRP-conjugated detection antibody was loaded into each well by 50 μl, followed by a reaction at 37° C. for 30 minutes. Washing buffer (1×PBS, 0.5% Tween20) was added by 200 μl, and washing was performed 5 times. 50 μl of chromogen solution A and 50 μl of chromogen solution B were added to each well, and a reaction was carried out in the darkness at 37° C. for 15 minutes. The stop solution was added to each well by 50 μl each to stop the reaction, and the amount of HBeAg was measured by measuring the absorbance (optical density, O.D.) level in the 450 nm wavelength band.

HBV virus [2] = experiment: HBV infection of HepG2-NTCP cells, Southern blot analysis; assay type: cell-based, hepatitis B virus (HBV); details: 20 μM
Protocol: as §1
First, the cell pellets were pipetted with 100 μl of HEPES lysis buffer (10 mM HEPES, 100 mM NaCl, 1 mM EDTA, 1% NP-40), placed on ice for 20 minutes, and then centrifuged with a centrifuge under the conditions at 4° C. and 13000 rpm. After transferring the supernatant only to the new microtube, 4.5 μl of nuclease buffer I (10 mM CaCl2), 12 mM MgCl2, DNase 10 units) was added to carry out a reaction at 37° C. for 2 hours, and 40 μl of 26% PEG solution was added, followed by a reaction on ice for 1 hour. After centrifuging with the centrifuge at 4° C. and 13000 rpm for 30 minutes, and the supernatant was removed cleanly. After releasing the pellets with 100 μl of nuclease buffer II (10 mM Tris, 8 mM CaCl2), 6 mM MgCl2), 287.5 μl of 0.5% SDS buffer (25 mM Tris, 10 mM EDTA, 0.5% SDS, 100 mM NaCl) was added, and 12.5 μl of 20 mg/ml proteinase K was added, followed by a reaction at 37° C. for 2 hours. 400 μl of phenol-chloroform-isoamyl alcohol was added, centrifugation was performed at room temperature at 13000 rpm after voltexing, the supernatant was transferred to a new tube, 40 μl of 3 M NaOAc was added, and 800 μl of 100% ethanol was added for inverting, followed by a reaction overnight at −20° C. After performing centrifugation at 4° C. and 13000 rpm for 30 minutes, 800 μl of 70% ethanol was added and mixed to the pellet obtained by removing the supernatant, centrifugation was performed at 4° C. and 13000 rpm for 10 minutes, and then the supernatant was discarded. The ethanol was dried for 5 minutes to leave only the HBV DNA pellets, and then the pellets were dissolved again in 15 μl of TE buffer (10 mM Tris, 1 mM EDTA). HBV DNA samples were loaded in 1% agarose gel, and electrophoresis was performed. It was then immersed in denature buffer (0.25 N NaOH, 1 M NaCl) for 30 minutes to denature dsDNA of HBV into ssDNA. The DNA in the gel was transferred to a Nylon membrane using a transfer buffer (0.4 M NaOH), the membrane was soaked with a 2×SSC buffer (sigma, cat #85639) for neutralization, followed by drying in air. The membrane was immersed in a church buffer (10% BSA, 0.5 M EDTA, 1 M NaPi, 20% SDS), and the radioisotopes were hybridized using a Mega prime kit (GE healthcare, RPN1607). After washing three times with washing buffer (2×SSC, 0.1% SDS), measurement was performed using radioisotope measurement equipment, and a relative replication rate (%) to the negative control group (Mock) was calculated and shown.

[3] = biological target: T1, NTCP, HepG2-hNTCP-C4 cell line (Homo sapiens, UniProt Q14973); experiment: Inhibition of binding of fluorescent-labeled PreS1 peptide, fluorescence imaging; details: 10 M and 50 PM; compared to the HBV-induced group solely treated with PreS1
T1 construct: expressed in transfected cells; host or cells: HepG2-hNTCP-C4 (HepG2 cells expressing human NTCP)
T1 sequence (Q14973 1-349): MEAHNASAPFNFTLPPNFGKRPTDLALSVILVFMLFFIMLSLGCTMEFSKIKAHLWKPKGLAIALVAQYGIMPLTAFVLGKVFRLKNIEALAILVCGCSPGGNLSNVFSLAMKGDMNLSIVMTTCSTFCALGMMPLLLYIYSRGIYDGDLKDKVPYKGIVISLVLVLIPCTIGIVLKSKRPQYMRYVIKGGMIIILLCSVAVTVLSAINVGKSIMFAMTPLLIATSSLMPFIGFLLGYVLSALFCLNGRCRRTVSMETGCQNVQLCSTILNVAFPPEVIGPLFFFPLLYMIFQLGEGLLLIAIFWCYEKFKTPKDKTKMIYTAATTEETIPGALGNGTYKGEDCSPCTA
Protocol: Specifically, after placing a cover slip coated with fibronectin on a 24 well plate, a HepG2-hNTCP-C4 cell line, which is a cell line expressing NTCP, was seeded at a density of 1×10^5, followed by incubation overnight. Thereafter, 20 nM PreS1 and the compounds in Examples 1, 8, 9, and 44 were treated by diluting in culture media at 4° C. at a concentration of 50 μM, respectively. After 2 hours, the media were suctioned, followed by washing twice with 4° C. PBS, fixation with 4% paraformaldehyde for 20 minutes, and washing twice with 4° C. PBS. Thereafter, 300 nM 4′,6-diamidino-2-phenylindole (DAPI) was treated to stain the nucleus for 20 minutes, and then washing was followed once with distilled water (DW) and twice with 4° C. PBS. Subsequently, 10 μl of mounting media was loaded onto a slide glass, and a cover slip was placed thereon for observation under a fluorescence microscope.
Green fluorescence may be observed when PreS1 binds to a cell line expressing NTCP by FITC conjugated to PreS1.

Row | SMILES | HBeAg absorbance level relative to Comparative Example 1 (LCA) and Comparative Example 2 (UDCA) (HBV virus [1]) | HBeAg absorbance level relative to the negative control group (Mock) (HBV virus [1]) | amount of HBeAg DNA detected compared to the negative control group (Mock) (HBV virus [2]) | binding between PreS1 and NTCP (green fluorescence imaging) [3]
1 | CC[C@@H](C)[C@H](NC(=O)CC[C@@H](C)[C@H]1CC[C@H]2[C@@H]3CC[C@@H]4C[C@H](O)CC[C@]4(C)[C@H]3C[C@H](O)[C@]12C)C(=O)O [Example 10, (2S,3R)-2-((R)-4-((3R,5R,8R,9S,10S,12S,13R,14S,17R)-3,12-dihydroxy-10,13-dimethyl-hexadecahydro-1H-cyclopenta[a]phenanthren-17-yl)pentanamido)-3-methylpentanoic acid] | lower | relatively lower | relatively less amount | 
2 | CC[C@@H](C)[C@H](NC(=O)CC[C@@H](C)[C@H]1CC[C@H]2[C@@H]3[C@@H](O)C[C@@H]4C[C@H](O)CC[C@]4(C)[C@H]3CC[C@]12C)C(=O)O [Example 2, (2S,3R)-2-((R)-4-((3R,5S,7S,8R,9S,10S,13R,14S,17R)-3,7-dihydroxy-10,13-dimethyl-hexadecahydro-1H-cyclopenta[a]phenanthren-17-yl)pentanamido)-3-methylpentanoic acid] | lower | relatively lower | relatively less amount | inhibited in a concentration dependent manner
3 | CC(C)[C@H](NC(=O)CC[C@@H](C)[C@H]1CC[C@H]2[C@@H]3CC[C@@H]4C[C@H](O)CC[C@]4(C)[C@H]3CC[C@]12C)C(=O)O [Example 44, (S)-2-((R)-4-((3R,5R,8R,9S,10S,13R,14S,17R)-3-hydroxy-10,13-dimethyl-hexadecahydro-1H-cyclopenta[a]phenanthren-17-yl)pentanamido)-3-methylbutanoic acid] | lower | relatively lower | relatively less amount | inhibited in a concentration dependent manner
4 | CC[C@@H](C)[C@H](NC(=O)CC[C@@H](C)[C@H]1CC[C@H]2[C@@H]3CC[C@@H]4C[C@H](O)CC[C@]4(C)[C@H]3CC[C@]12C)C(=O)O [Example 1, (2S,3R)-2-((R)-4-((3R,5R,8R,9S,10S,13R,14S,17R)-3-hydroxy-10,13-dimethyl-hexadecahydro-1H-cyclopenta[a]phenanthren-17-yl)pentanamido)-3-methylpentanoic acid] | lower | relatively lower | relatively less amount | inhibited in a concentration dependent manner
5 | CC(C)[C@H](NC(=O)CC[C@@H](C)[C@H]1CC[C@H]2[C@@H]3[C@@H](O)C[C@@H]4C[C@H](O)CC[C@]4(C)[C@H]3CC[C@]12C)C(=O)O [Example 3, (S)-2-((R)-4-((3R,5S,7S,8R,9S,10S,13R,14S,17R)-3,7-dihydroxy-10,13-dimethyl-hexadecahydro-1H-cyclopenta[a]phenanthren-17-yl)pentanamido)-3-methylbutanoic acid] | lower | relatively lower | relatively less amount | inhibited in a concentration dependent manner
